Patent publication US11779569B2, “Methods and compositions for treating hyperhidrosis” (THERAVIDA, INC., priority 2016, dated 2023)

Legend:
[1] = test system: subjects with primary focal hyperhidrosis; test: Dry Mouth Visual Analog Scale (DMVAS), crossover clinical study; format: in vivo, human; settings: 100 mm scale, 100 = worst; PP; n 18
Excerpt: The clinical study was a randomized, double blind, placebo-controlled, crossover study of approximately 18 subjects. Following qualification, subjects were randomized to one of 6 groups/sequences during which they received each of the three study treatments in sequential treatment periods. Each 21-day double-blind study treatment period was preceded by an at least 7-day washout period. Subsequent study treatment assignments were via the sequential three-way crossover design prescribed in that group. […]
The DMVAS will be used to quantify the severity of dry mouth experienced by subjects during this clinical trial. […] The score was determined by measuring the distance from the left anchor to where the line that the subject drew bisected the (100 mm) scale. The distance was measured and recorded in millimeters (mm). […]
(§1) Efficacy and safety analyses were conducted on study treatment (THVD-102 [7.5/7.5], oxybutynin or placebo). […] There was a statistically significant effect in each of three measures of efficacy: • 1) Hyperhidrosis Disease Severity Scale (p=0.03-0.05) • THVD-102 [7.5/7.5]=1.06±1.11; Oxybutynin=1.33±1.03; placebo=0.5±0.62 1 point drop=50% reduction in sweating; 2 points=80% reduction • 2) Hyperhidrosis Visual Analog Scale (p=0.01) • 3) Hyperhidrosis Visual Quantification Scale (p=0.005-0.07)

[2] = test system: subjects with primary focal hyperhidrosis; test: Dry Mouth Questions (Dry Mouth Severity/Incidence Questionnaire), crossover clinical study; format: in vivo, human; settings: PP, n 18
Excerpt: (§2) The clinical study was a randomized, double blind, placebo-controlled, crossover study of approximately 18 subjects. Following qualification, subjects were randomized to one of 6 groups/sequences during which they received each of the three study treatments in sequential treatment periods. Each 21-day double-blind study treatment period was preceded by an at least 7-day washout period. Subsequent study treatment assignments were via the sequential three-way crossover design prescribed in that group. After completing the final study treatment period or early study treatment discontinuation, all subjects completed an end of study visit (approximately 14 days after the last study treatment administration. FIG. 5 illustrates a scheme of the clinical study design.
The active control of oxybutynin 7.5 mg is the comparator for THVD-102 [7.5/7.5] for the anti-muscarinic induced dry mouth symptom incidence and severity.
Subjects were randomized to 1 of 6 groups/sequences of study treatment administration. Each sequence included sequential crossover assignment to a 21-day treatment period of: • oxybutynin 7.5 mg BID alone by mouth; • THVD-102 [7.5/7.5] (oxybutynin 7.5 mg in combination with pilocarpine 7.5 mg) BID by mouth; and • placebo BID by mouth.
Dry Mouth Questions (Dry Mouth Severity/Incidence Questionnaire)
At the end of the end of each treatment period, investigational site staff questioned subjects regarding the incidence of dry mouth. This assessment occurred after the subject had completed the DMVAS and DTVAS and included questions relating to the incidence and severity of dry mouth symptoms and remedial actions taken. The investigator was instructed to query subjects in a non-judgmental, non-leading manner using the following script (© 2012, Thomas Tremblay and Robin Allgren) to elicit the incidence of dry mouth: • Have you had any dry mouth since starting (the most recent) study treatment? (at completion of Treatment Periods 1, 2, and 3)
as §1, with “placebo). Continuous data were summarized by using descriptive statistics (mean, SD, median, min, max) and categorical data were summarized in frequency tables. Using Day 1 of the first and each subsequent Treatment Period as baselines for measuring treatment effect, a Wilcoxon signed-rank test were performed.” for “placebo).”

[3] = test system: subjects with primary focal hyperhidrosis; test: Hyperhidrosis Disease Severity Scale (HDSS), crossover clinical study; format: in vivo, human; settings: BID by mouth, 21-day treatment period; 1 point drop=50% reduction in sweating, 2 points=80% reduction
Excerpt: as §2
Subjects were randomized to 1 of 6 groups/sequences of study treatment administration. […]
as §1

[4] = Jacobs 1996; Cheshire and Fealey 2008; Salagen product insert; cited from earlier work

SMILES	Dry mouth Visual Analog Scale, Change D0-D21 [1] [mm]	Moderate/Severe dry mouth, number of subjects [2]	Moderate/Severe dry mouth, percent of subjects [2] [%]	None/Mild dry mouth, number of subjects [2]	None/Mild dry mouth, percent of subjects [2] [%]	Hyperhidrosis Disease Severity Scale [3]	effect on sweating [4]
CCN(CC)CC#CCOC(=O)C(O)(c1ccccc1)C1CCCCC1 (stereo not shown) [Oxybutynin, 4-Diethylaminobut-2-ynyl 2-cyclohexyl-2-hydroxy-2-phenylethanoate]	43.9 ± 27.9	13	72	5	27	1.33±1.03	–
CC[C@@H]1C(=O)OC[C@@H]1Cc1cncn1C [pilocarpine, (3S,4R)-3-Ethyl-4-((1-methyl-1H-imidazol-5-yl)methyl)dihydrofuran-2(3H)-one]	–	–	–	–	–	–	known to cause an increase in sweating
